# From patent US20260176289A1, “SMALL MOLECULE INHIBITORS OF KRAS PROTEINS” (Merck Sharp & Dohme LLC, priority 2022, published 2026)
# Where two headings read alike, the source gives them in different places.
# How the values were obtained:
# MKN-1 cells = assay: Cellular phospho-ERK assay, MKN-1 cells (amplified wild-type KRAS); assay type: cell-based; details: Homo sapiens, read-out: MKN1 pERK IC50
# In short: (§1)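 Inhibition of ERK phosphorylation was determined after treating attached cells with compound for 2 h; top concentration 30 μM, serial 1:3 dilution. Each well's p-ERK:total ERK ratio, read by SureFire Ultra, was fitted with a four-parameter model for IC50.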
# NRAS = NRAS (Homo sapiens, UniProt P01111); assay: SOS-catalyzed nucleotide exchange assay (Procedure A, TR-FRET), NRAS; assay type: biochemical; details: read-out: NRAS GNE IC50
# Excerpt: Procedure for SOS-Catalyzed Nucleotide Exchange Assay for KRAS-WT, G12C/D/V, G13D, HRAS, and NRAS (Procedure A)
# Recombinant KRAS-G12C protein used in this assay has an additional triple mutation (C51S/C80L/C118S). Whereas KRAS-WT, G12D/V, G13D, HRAS and NRAS are in context of their WT protein sequence background. Specifically, the SOS-catalyzed nucleotide exchange assay utilizes a preformed TR-FRET complex containing a specific biotinylated RAS protein (KRAS-WT, G12C/V/D, G13D, HRAS, NRAS; described above) with Bodipy-GDP, and Terbium-streptavidin. Compounds are preincubated with this complex for 60 minutes. Subsequently, recombinant human SOS protein and unlabeled GTP are added to initiate the exchange reaction. Small molecule inhibitors stabilize the Bodipy-GDP complex whereas the untreated protein rapidly exchanges Bodipy-GDP for unlabeled GTP resulting in reduced TR-FRET signal.
# To assemble the preformed TR-FRET complexes, each biotinylated RAS protein is diluted to 2 μM in an EDTA Buffer (20 mM HEPES pH 7.5, 50 mM sodium chloride, 10 mM EDTA, and 0.01% Tween) and incubated at room temperature for one hour. This mixture is then further diluted to 90 nM in an Assay Buffer (20 mM HEPES pH 7.5, 150 mM sodium chloride, 10 mM magnesium chloride, and 0.005% Tween) containing 15 nM of Terbium-Streptavidin (Invitrogen, catalog #PV3577) and 900 nM of Bodipy-GDP (Invitrogen, catalog #G22360) and incubated at room temperature for six hours. It should be noted that this preformed TR-FRET complex for each of the RAS protein were made ahead of time, aliquoted and stored at −80° C. until the day of the experiment.
# Each test compound (10 mM stock in DMSO) is diluted in DMSO to make a final-10-point, 3-fold dilution and is acoustically dispensed into a 384-well assay plate (Corning, catalog #3820) using an Echo 550 (Labcyte). Each well of the assay plate receives 3 μL of a specific 3×RAS preformed TR-FRET complex and 3 μL of Assay Buffer and is incubated at room temperature for 60 minutes (preincubation time). Each well then receives 3 μL of 3×recombinant human SOS protein and GTP (Sigma, G8877) in Assay Buffer and is incubated at room temperature for 30 minutes (G13D), 60 minutes (KRAS WT/G12C/D, H/NRAS) or 90 minutes for G12V. […]
# The time-resolved fluorescence resonance energy transfer (TR-FRET) signal is measured on an Envision (PerkinElmer) plate reader: Excitation filter=340 nm; emission 1=495 nm; emission2=520 nm; dichroic mirror=D400/D505; delay time=[…]. The signal of each well is determined as the ratio of the emission at 520 nm to that at 495 nm. Percent effect of each well is determined after normalization to control wells containing DMSO (no effect) or a saturating concentration of inhibitor (max effect). […]
# AsPC-1 cells = assay: Cellular phospho-ERK assay, AsPC-1 cells (homozygous KRAS-G12D); assay type: cell-based; details: Homo sapiens, ASPC1, 2 h, read-out: AsPC1 pERK IC50
# In short: as §1
# KRAS-G12D = KRAS-G12D (Homo sapiens, UniProt P01116, G12D); assay: SOS-catalyzed nucleotide exchange assay (Procedure A, TR-FRET), KRAS-G12D; assay type: biochemical; details: nucleotide exchange, read-out: KRAS G12D GNE IC50
# In short: (§2)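 Signal ratio (520/495 nm, excitation 340 nm) reports Bodipy-GDP retention on biotinylated RAS after SOS-catalyzed exchange with 3 mM GTP. SOS was 40 nM, except 160 nM for G12V. Room-temperature exchange lasted 60 min (90 min for G12V), following a 60 min compound preincubation.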
# SW620 cells = assay: Cellular phospho-ERK assay, SW620 cells (homozygous KRAS-G12V); assay type: cell-based; details: Homo sapiens, read-out: SW620 pERK IC50
# In short: as §1
# KRAS-G13D = KRAS-G13D (Homo sapiens, UniProt P01116, G13D); assay: SOS-catalyzed nucleotide exchange assay (Procedure A, TR-FRET), KRAS-G13D; assay type: biochemical; details: nucleotide exchange, Procedure A; read-out: KRAS G13D GNE IC50
# KRAS-WT = KRAS-WT (Homo sapiens, UniProt P01116); assay: SOS-catalyzed nucleotide exchange assay (Procedure A, TR-FRET), KRAS-WT; assay type: biochemical; details: nucleotide exchange, read-out: KRAS WT GNE IC50
# In short: (§3)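 Inhibitors stabilizing the Bodipy-GDP state are detected as retained TR-FRET from a preformed biotinylated RAS/Tb-streptavidin complex. They are preincubated 60 min at room temperature, then human SOS and 3 mM GTP are added. G12V runs 90 min at 1.25 nM RAS/160 nM SOS. G12C (3 nM), WT (1 nM) and NRAS (1.25 nM) run 60 min with 40 nM SOS.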
# HRAS = HRAS (Homo sapiens, UniProt P01112); assay: SOS-catalyzed nucleotide exchange assay (Procedure A, TR-FRET), HRAS; assay type: biochemical; details: read-out: HRAS GNE IC50
# In short: as §2
# KRAS-G12V = KRAS-G12V (Homo sapiens, UniProt P01116, G12V); assay: SOS-catalyzed nucleotide exchange assay (Procedure A, TR-FRET), KRAS-G12V; assay type: biochemical; details: nucleotide exchange, read-out: KRAS G12V GNE IC50
# In short: as §3
# [1] = target: KRAS-G12C (C51S/C80L/C118S) (Homo sapiens, UniProt P01116, C118S/C51S/C80L/G12C); assay: SOS-catalyzed nucleotide exchange assay (Procedure A, TR-FRET), KRAS-G12C; assay type: biochemical; details: nucleotide exchange, Procedure A; read-out: KRAS G12C GNE IC50
# In short: as §3
# PANC08.13 cells = assay: Cellular phospho-ERK assay, PANC08.13 cells (homozygous KRAS-G12D); assay type: cell-based; details: Homo sapiens, PANC-08-13, 2 hours compound incubation, read-out: PANC-08.13 pERK IC50
# In short: as §1
# [2] = SW-620, 2 hours compound incubation
# KRAS-WT, sequence (P01116 with tags, fused parts or gaps isoform P01116-2): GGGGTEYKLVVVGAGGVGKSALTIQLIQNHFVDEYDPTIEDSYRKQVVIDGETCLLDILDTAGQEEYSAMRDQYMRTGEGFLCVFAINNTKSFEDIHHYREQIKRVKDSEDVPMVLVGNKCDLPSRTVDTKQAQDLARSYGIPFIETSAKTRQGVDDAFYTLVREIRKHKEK
# KRAS-G12V, sequence (P01116 with tags, fused parts or gaps isoform P01116-2 G12V): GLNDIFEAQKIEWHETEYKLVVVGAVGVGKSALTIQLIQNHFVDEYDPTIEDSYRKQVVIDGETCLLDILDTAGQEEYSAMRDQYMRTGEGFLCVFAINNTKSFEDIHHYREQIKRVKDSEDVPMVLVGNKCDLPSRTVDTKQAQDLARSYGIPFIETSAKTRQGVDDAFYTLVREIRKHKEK
# NRAS, sequence (P01111 with tags, fused parts or gaps): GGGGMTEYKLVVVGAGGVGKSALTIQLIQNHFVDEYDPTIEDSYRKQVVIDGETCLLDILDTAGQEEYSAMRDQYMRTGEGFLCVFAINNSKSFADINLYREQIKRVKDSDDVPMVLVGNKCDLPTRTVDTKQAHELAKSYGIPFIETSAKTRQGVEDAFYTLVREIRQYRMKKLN
# KRAS-G12D, sequence (P01116 with tags, fused parts or gaps isoform P01116-2 G12D): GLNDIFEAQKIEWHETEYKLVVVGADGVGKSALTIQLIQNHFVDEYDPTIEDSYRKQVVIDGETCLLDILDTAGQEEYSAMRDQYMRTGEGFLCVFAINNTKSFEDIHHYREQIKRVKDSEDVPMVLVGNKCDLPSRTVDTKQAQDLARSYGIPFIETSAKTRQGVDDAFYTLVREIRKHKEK
# HRAS, sequence (P01112 with tags, fused parts or gaps): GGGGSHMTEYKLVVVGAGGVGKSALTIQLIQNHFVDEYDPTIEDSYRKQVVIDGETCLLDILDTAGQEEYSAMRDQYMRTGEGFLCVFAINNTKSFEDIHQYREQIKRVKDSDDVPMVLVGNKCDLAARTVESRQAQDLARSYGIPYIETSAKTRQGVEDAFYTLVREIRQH
# KRAS-G13D, sequence (P01116 with tags, fused parts or gaps isoform P01116-2 G13D): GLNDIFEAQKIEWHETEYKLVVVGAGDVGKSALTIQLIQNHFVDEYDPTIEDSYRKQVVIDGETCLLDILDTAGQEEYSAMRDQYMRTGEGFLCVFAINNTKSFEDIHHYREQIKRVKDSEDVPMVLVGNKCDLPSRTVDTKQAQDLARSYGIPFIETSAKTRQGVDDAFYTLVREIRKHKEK
# KRAS-G12C (C51S/C80L/C118S), sequence (P01116 with tags, fused parts or gaps isoform P01116-2 G12C/C51S/C80L/C118S): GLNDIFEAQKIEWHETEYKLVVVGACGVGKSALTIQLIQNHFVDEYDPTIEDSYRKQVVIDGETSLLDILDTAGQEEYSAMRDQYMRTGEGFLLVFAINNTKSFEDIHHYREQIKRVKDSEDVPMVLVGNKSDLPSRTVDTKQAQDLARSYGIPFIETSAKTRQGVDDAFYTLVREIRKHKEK
structure (smiles),measurement,setting,value
"C#Cc1csc2cc3[nH]ncc3c(-c3nccc4c3sc3nc(OC[C@@]56CCCN5C[C@H](F)C6)nc(N5CCOC[C@@](C)(O)C5)c34)c12 [Ex-163, (6S)-4-(8-(5-ethyn-yl-1H-thieno[3,2-f]indazol-4-yl)-2-(((2R,7aS)-2-fluoro-tetrahydro-1H-pyr-rolizin-7a(5H)-yl)-methoxy)pyrido [4′,3′:4,5]thieno[2,3-d]pyrimidin-4-yl)-6-methyl-1,4-oxaze-pan-6-ol]",IC50,MKN-1 cells; 2 hours compound incubation,20.8 nM
same,IC50,NRAS,7370 nM
same,IC50,AsPC-1 cells; 2 hours compound incubation,14.6 nM
same,IC50,KRAS-G12D,2.36 nM
same,IC50,SW620 cells; [2],2.29 nM
same,IC50,KRAS-G13D,3.13 nM
same,IC50,KRAS-WT,3.79 nM
same,IC50,HRAS,1450 nM
same,IC50,KRAS-G12V,4.53 nM
same,IC50,[1],19.8 nM
"CN(C)C[C@@]1(COc2nc(N3CCOC[C@@](C)(O)C3)c3c(n2)sc2c(-c4c(C5CC5)c(Cl)cc5[nH]ncc45)nccc23)CC1(F)F [Ex-131, (6S)-4-(8-(6-chloro-5-cyclopropyl-1H-indazol-4-yl)-2-(((R)-1-((dimeth-ylamino)methyl)-2,2-difluorocyclo-propyl)methoxy)-pyrido[4′,3′:4,5]thieno[2,3-d]pyr-imidin-4-yl)-6-methyl-1,4-oxaze-pan-6-ol]",IC50,"MKN-1 cells; amplified wild-type KRAS, 2 hours",22.8 nM
same,IC50,NRAS,5160 nM
same,IC50,"AsPC-1 cells; KRAS-G12D, 2 hours",21.8 nM
same,IC50,KRAS-G12D,3.57 nM
same,IC50,"SW620 cells; SW-620, KRAS-G12V, 2 hours",15.1 nM
same,IC50,KRAS-G13D,7.21 nM
same,IC50,KRAS-WT,11.3 nM
same,IC50,HRAS,389 nM
same,IC50,KRAS-G12V,18.2 nM
same,IC50,[1],97.9 nM
"C#Cc1c(F)ccc2cc(O)cc(-c3nccc4c3sc3nc(OC[C@@]56CCCN5C[C@H](F)C6)nc(N5CCOC[C@@](C)(O)C5)c34)c12 [Ex-135, (S)-4-(8-(8-ethynyl-7-fluoro-3-hydroxy-naphthalen-1-yl)-2-(((2R,7aS)-2-fluoro-tetrahydro-1H-pyr-rolizin-7a(5H)-yl)-methoxy)pyrido [4′,3′:4,5]thieno[2,3-d]pyrimidin-4-yl)-6-methyl-1,4-oxaze-pan-6-ol]",IC50,MKN-1 cells; 2 hours compound incubation,3.86 nM
same,IC50,NRAS,9400 nM
same,IC50,AsPC-1 cells; 2 hours compound incubation,4.61 nM
same,IC50,KRAS-G12D,1.47 nM
same,IC50,SW620 cells; [2],1.5 nM
same,IC50,KRAS-G13D,2.54 nM
same,IC50,KRAS-WT,0.766 nM
same,IC50,HRAS,1570 nM
same,IC50,KRAS-G12V,1.08 nM
same,IC50,PANC08.13 cells,1.4 nM
same,IC50,[1],9.25 nM
